AC50 data for six compounds are collected here from patent publication US12344610B2, “APOL1 inhibitors and methods of use” (Maze Therapeutics, Inc., priority 2022, dated 2025).

The target of this assay is T1, APOL1 G2 (Homo sapiens, UniProt O14791, DEL388-389).
T1 construct: expressed in transfected cells; host or cells: HEK293 T-REx clonal line stably expressing GCaMP6f (HEK T-REx/GCaMP6f/APOL1 G2 K6.3), doxycycline induced
T1 sequence (O14791 with tags, fused parts or gaps DEL388-389): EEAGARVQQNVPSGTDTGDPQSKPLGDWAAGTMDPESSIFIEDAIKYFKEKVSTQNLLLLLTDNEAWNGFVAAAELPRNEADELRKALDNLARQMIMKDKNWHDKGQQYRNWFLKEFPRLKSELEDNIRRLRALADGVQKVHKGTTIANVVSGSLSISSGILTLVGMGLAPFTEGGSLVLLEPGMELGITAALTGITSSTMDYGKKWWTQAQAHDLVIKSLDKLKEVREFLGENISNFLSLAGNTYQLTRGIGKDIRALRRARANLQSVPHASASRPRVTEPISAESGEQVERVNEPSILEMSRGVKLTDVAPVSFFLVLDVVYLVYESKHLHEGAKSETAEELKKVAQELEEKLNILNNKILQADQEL
The assay can be described thus: APOL1-mediated calcium transport (calcium influx) assay, HEK T-REx/GCaMP6f/APOL1 G2 K6.3 cells, FLIPR TETRA. Type of assay: cell-based. The conditions noted are these: prevention of calcium influx; geometric mean of at least 2 assay runs; † = average of a technical replicate from a single assay run. Summed up: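 A HEK293 T-REx clone stably expressing GCaMP6f had APOL1 G2 induced with doxycycline (20 ng/mL solution added) for 6 h. Cells were then washed into Ca2+-free Tyrode's buffer (pH 7.4) and preincubated with compounds (duplicate 8-point) for 10 min at room temperature. Ca2+ injection to 5 mM final produced FLIPR GCaMP fluorescence, giving AC50 for influx inhibition (geometric mean, ≥2 runs).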

Regarding `C[C@]1(O)C[C@@H](n2nnc3cc(OCCN4CCC5(CC4)C(=O)Nc4ccc(C#N)cc45)cc(C(F)(F)F)c32)C1` [Compound 435, 2-oxo-1′-[2-({1-[(cis)-3-hydroxy-3-methylcyclobutyl]-7-(trifluoromethyl)-1H-1,2,3-benzotriazol-5-yl}oxy)ethyl]-1,2-dihydrospiro[indole-3,4′-piperidine]-5-carbonitrile], the AC50 (as a rule, the concentration giving half of the maximal activity seen) amounted to 1170 nM.

As for `Cc1nc2cc(OCCN3CCC4(CC3)C(=O)Nc3ccc(Cl)cc34)cc(C(F)(F)F)c2n1[C@H]1C[C@@](C)(O)C1` [Compound 442, 5-chloro-1′-[2-({2-methyl-1-[(cis)-3-hydroxy-3-methylcyclobutyl]-7-(trifluoromethyl)-1H-1,3-benzodiazol-5-yl}oxy)ethyl]-1,2-dihydrospiro[indole-3,4′-piperidin]-2-one], the AC50 came to 2140 nM.

Take `CS(=O)(=O)c1ccc(OCCN2CCC3(CC2)C(=O)Nc2ccc(Cl)cc23)cc1` [Compound 69, 5-chloro-1′-[2-(4-methanesulfonylphenoxy)ethyl]-1,2-dihydrospiro[indole-3,4′-piperidin]-2-one]: the AC50 is 216 nM.

Take `CC(C)(O)c1ncc(OCCN2CCC3(CC2)C(=O)Nc2ccc(C#N)cc23)cc1C(F)(F)F` [Compound 411, 1′-(2-{[6-(2-hydroxypropan-2-yl)-5-(trifluoromethyl)pyridin-3-yl]oxy}ethyl)-2-oxo-1,2-dihydrospiro[indole-3,4′-piperidine]-5-carbonitrile]: the AC50 is 436 nM.

For the compound `C[C@]1(O)C[C@@H](n2ccc3cc(OCCN4CCC5(CC4)C(=O)Nc4ccc(C(F)F)cc45)cnc32)C1` [Compound 350, 5-(difluoromethyl)-1′-[2-({1-[(cis)-3-hydroxy-3-methylcyclobutyl]-1H-pyrrolo[2,3-b]pyridin-5-yl}oxy)ethyl]-1,2-dihydrospiro[indole-3,4′-piperidin]-2-one], the concentration at half-maximal activity (AC50) stood at 113 nM.

For `CC(C)[C@]1(O)C[C@@H](N2C(=O)CCc3cc(OCCN4CCC5(CC4)C(=O)Nc4ccc(Cl)cc45)cnc32)C1` [Compound 317, 5-chloro-1′-[2-({7-oxo-8-[(cis)-3-hydroxy-3-(propan-2-yl)cyclobutyl]-5,6,7,8-tetrahydro-1,8-naphthyridin-3-yl}oxy)ethyl]-1,2-dihydrospiro[indole-3,4′-piperidin]-2-one], the half-maximal activity concentration (AC50) was determined as 792 nM.
